# Values quoted from earlier work, collected in US20030125243A1, “Synthesis of cyclic peptides” (priority 2000, published 2003).
# Biological target: αvβ3 (Homo sapiens, UniProt P05106+P06756)
# Settings: background statement, Haubner et al. 1996
# αvβ3, sequence (P06756 31-889 limits assumed): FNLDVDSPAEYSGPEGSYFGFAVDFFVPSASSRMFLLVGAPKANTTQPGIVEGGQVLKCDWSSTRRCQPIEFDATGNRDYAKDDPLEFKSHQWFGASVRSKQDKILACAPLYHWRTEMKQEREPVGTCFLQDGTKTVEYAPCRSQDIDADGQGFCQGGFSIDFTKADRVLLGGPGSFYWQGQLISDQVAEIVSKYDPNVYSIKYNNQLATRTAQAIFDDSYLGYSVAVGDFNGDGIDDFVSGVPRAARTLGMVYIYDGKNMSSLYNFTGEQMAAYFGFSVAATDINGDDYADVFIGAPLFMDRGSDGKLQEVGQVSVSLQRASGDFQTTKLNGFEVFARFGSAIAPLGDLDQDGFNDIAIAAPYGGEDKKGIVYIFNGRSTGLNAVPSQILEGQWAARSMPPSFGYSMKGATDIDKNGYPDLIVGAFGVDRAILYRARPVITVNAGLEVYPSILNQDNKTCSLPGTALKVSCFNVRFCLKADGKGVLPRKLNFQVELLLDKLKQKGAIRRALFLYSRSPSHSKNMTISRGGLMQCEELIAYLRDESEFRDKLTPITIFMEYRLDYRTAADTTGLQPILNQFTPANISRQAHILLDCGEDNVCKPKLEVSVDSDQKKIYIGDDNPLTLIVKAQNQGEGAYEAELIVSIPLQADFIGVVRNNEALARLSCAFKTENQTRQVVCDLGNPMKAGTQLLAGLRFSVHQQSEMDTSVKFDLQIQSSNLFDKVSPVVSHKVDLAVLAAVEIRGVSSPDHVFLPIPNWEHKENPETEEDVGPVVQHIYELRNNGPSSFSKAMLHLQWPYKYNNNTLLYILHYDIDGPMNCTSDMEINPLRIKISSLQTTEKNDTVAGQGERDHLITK
# αvβ3, sequence (P06756 891-1048 partner limits assumed): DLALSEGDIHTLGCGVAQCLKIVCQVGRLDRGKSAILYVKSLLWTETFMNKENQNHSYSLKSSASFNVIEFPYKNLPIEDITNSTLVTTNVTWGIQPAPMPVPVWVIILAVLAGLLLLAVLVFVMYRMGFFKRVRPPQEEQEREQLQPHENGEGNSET
# αvβ3, sequence (P05106 27-788): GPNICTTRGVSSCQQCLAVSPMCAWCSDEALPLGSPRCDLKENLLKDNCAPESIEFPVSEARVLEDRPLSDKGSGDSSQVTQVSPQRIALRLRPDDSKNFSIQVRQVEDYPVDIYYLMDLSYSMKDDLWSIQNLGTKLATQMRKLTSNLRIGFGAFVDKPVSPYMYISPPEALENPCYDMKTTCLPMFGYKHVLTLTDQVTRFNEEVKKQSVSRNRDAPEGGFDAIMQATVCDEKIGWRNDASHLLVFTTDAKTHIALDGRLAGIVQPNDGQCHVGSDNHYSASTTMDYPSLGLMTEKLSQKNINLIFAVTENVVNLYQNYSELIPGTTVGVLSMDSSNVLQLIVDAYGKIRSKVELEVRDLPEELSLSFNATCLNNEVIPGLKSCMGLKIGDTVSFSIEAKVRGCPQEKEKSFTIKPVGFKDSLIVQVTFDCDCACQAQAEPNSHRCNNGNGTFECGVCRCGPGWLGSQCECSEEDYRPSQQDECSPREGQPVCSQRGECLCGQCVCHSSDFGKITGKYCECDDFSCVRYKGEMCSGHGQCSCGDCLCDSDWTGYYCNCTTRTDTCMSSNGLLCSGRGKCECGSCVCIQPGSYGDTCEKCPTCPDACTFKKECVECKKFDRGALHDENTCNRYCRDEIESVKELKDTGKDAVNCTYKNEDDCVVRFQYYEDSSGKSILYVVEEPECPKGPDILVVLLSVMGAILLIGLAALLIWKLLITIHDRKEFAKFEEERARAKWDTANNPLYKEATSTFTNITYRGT
substance,measurement,value
cRGDfK,binding to αvβ3 (potency and selectivity),high potency and selectivity
